This note sets out measurements from US8183296B2, “Pesticide phenyloxy substituted phenylamidine derivatives” (Bayer Cropscience AG, priority 2005, dated 2012).

SMILES strings stand for the structures.

A short description of data set [1]: logP by HPLC on reversed-phase column (C 18), EEC Directive 79/831 Annex V.A8. Type of data set: physicochemical. The following applies: reversed-phase HPLC column (C 18), C 18, 40° C., 0.1% aqueous formic acid and acetonitrile, read-out: logPa. The protocol:
Temperature: 40° C.; Mobile phases: 0.1% aqueous formic acid and acetonitrile; linear gradient from 10% acetonitrile to 90% acetonitrile.
Calibration was carried out using unbranched alkan-2-ones (comprising 3 to 16 carbon atoms) with known logP values (determination of the logP values by the retention times using linear interpolation between two successive alkanones).

The next data set concerns Podosphaera leucotricha. Briefly: In vivo protective test on Podosphaera leucotricha (apples). The settings on record: topical, 240 h, 100 ppm of active ingredient, evaluated 10 days after inoculation, read-out: efficacy. The source says:
In Vivo Protective Test on Podosphaera leucotricha (Apples) [table] […] To test for protective activity, young plants are sprayed with the preparation of active compound at the stated rate of application. After the spray coating has dried on, the plants are inoculated with an aqueous spore suspension of the causal agent of apple mildew (Podosphaera leucotricha).

In data set [2] the test system is Puccinia recondita f. Sp. tritici. Briefly: In vivo preventive test on Puccinia recondita f. Sp. tritici (wheat brown rust). The following applies: topical, 240 h, 1000 ppm of active ingredient, evaluated 10 days after inoculation, read-out: efficacy. The protocol:
In Vivo Preventive Test on Puccinia recondita f. Sp. tritici (Wheat Brown Rust)
(§1) To produce a suitable preparation of active compound, 1 part by weight of active compound is mixed with the stated amounts of solvent and emulsifier, and the concentrate is diluted with water to the desired concentration.
To test for preventive activity, young plants are […]. After the spray coating has dried on, the plants are sprayed with the preparation of active compound at the stated rate of application. The plants remain for 24 hours in an incubation cabinet at 20° C. and a relative atmospheric humidity of 100%.
The plants are placed in a greenhouse at a temperature of approximately 20° C. and a relative atmospheric humidity of approximately 80% to promote the development of rust pustules.
The test is evaluated 10 days after the inoculation. 0% means an efficacy which corresponds to that of the control, while an efficacy of 100% means that no disease is observed.

Another data set has as its system Alternaria solani. Briefly: In vivo protective test on Alternaria solani (leaf spot of tomato). The settings on record: topical, 168 h, 500 ppm of active ingredient, evaluated 7 days after inoculation, read-out: efficacy. The protocol: In Vivo Protective Test on Alternaria solani (Leaf Spot of Tomato)
as §1
To test for protective activity, young plants are sprayed with the preparation of active compound at the stated rate of application. After the spray coating has dried on, the plants are inoculated with an aqueous spore suspension of Alternatia solani. The plants remain for one day in an incubation cabinet at approximately 20° C. and a relative atmospheric humidity of 100%. Then the plants are placed in an incubation cabinet at approximately 20° C. and a relative atmospheric humidity of 96%.
The test is evaluated 7 days after the inoculation. 0% means an efficacy which corresponds to that of the control while an efficacy of 100% means that no disease is observed.

In the next data set the test system is Sphaerotheca fuliginea. Briefly: In vivo protective test on Sphaerotheca fuliginea (cucumbers). The settings on record: Podosphaera fuliginea, topical, 168 h, 100 ppm of active ingredient, evaluated 7 days after inoculation, read-out: efficacy. Here is the method:
In Vivo Protective Test on Sahaerotheca fuliginea (Cucumbers)
as §1
To test for protect activity, young plants are sprayed with the preparation of active compound at the stated rate of application. After the spray coating has dried on, the plants are inoculated with an aqueous spore suspension of Sphaerotheca fuliginea. The plants are then placed in a greenhouse at approximately 23° C. and a relative atmospheric humidity of approximately 70%.
(§2) The test is evaluated 7 days after the inoculation. 0% means an efficacy which corresponds to that of the control, while an efficacy of 100% means that no disease is observed.

Data set [3] deals with Erysiphe graminis f.sp. hordei. The experiment in a line: In vivo preventive test on Erysiphe graminis (powdery mildew on barley). The following applies: Blumeria graminis, topical, 168 h, 1000 ppm of active ingredient, evaluated 7 days after inoculation, read-out: efficacy. The protocol:
In Vivo Preventive Test on Erysiphe gramini (Powdery Mildew on Barley)
To produce a suitable preparation of active compound, 1 part by weight of active compound or active compound combination is mixed with the stated amounts of solvent and emulsifier, and the concentrate is diluted with water to the desired concentration.
To test for preventive activity, young plants are sprayed with the preparation of active compound or active compound combination at the stated rate of application.
After the spray coating has dried on, the plants are dusted with spores of Erysiphe graminis f.sp. hordei
The plants are placed in a greenhouse at a temperature of approximately 20° C. and a relative atmospheric humidity of approximately 80% to promote the development of mildew pustules.
as §2

Take `CCc1cc(Oc2cc(C)c(/N=C/N(C)CC)cc2C)ccc1Cl` [Example 5]: in data set [1], the chromatographic logP amounted to 2.56. The pest or weed control at 100 ppm in the data set with Podosphaera leucotricha and in the data set on Sphaerotheca fuliginea was not below 70% each time. For the same compound, the pest or weed control at 1000 ppm in data set [2] and in data set [3] was not below 70% each time. Further, the pest or weed control at 500 ppm in the data set on Alternaria solani is not below 70%.
`CCCN(C)/C=N/c1cc(C)c(Oc2ccc(Cl)c(C(C)(C)C)c2)cc1C` [Example 8]: the chromatographic logP in data set [1] amounted to 3.3. In addition, the pest or weed control at 100 ppm in the data set on Podosphaera leucotricha and in the data set on Sphaerotheca fuliginea was not below 70% in each case. In addition, the pest or weed control at 1000 ppm in data set [2] and in data set [3] was not below 70% in each case. The pest or weed control at 500 ppm in the data set with Alternaria solani is not below 70%.
Regarding `Cc1cc(Oc2ccc(Cl)c(C(C)(C)C)c2)c(C)cc1/N=C/N(C)C(C)C` [Example 9], the chromatographic logP in data set [1] was 3.42. The pest or weed control at 100 ppm in the data set with Podosphaera leucotricha and in the data set with Sphaerotheca fuliginea was not below 70% in each case. Moreover, the pest or weed control at 1000 ppm in data set [2] and in data set [3] was not below 70% in each case. Also, the pest or weed control at 500 ppm in the data set on Alternaria solani was not below 70%.
On to `CCN(C)/C(S)=N/c1cc(C)c(Oc2ccc(Cl)c(C(C)(C)C)c2)cc1C` [Example 10], for which, in data set [1], the chromatographic logP is 5.12. Further, the pest or weed control at 100 ppm in the data set with Podosphaera leucotricha and in the data set with Sphaerotheca fuliginea was not below 70% each time. Further, in the data set with Alternaria solani, the pest or weed control at 500 ppm is not below 70%. The pest or weed control at 1000 ppm in data set [3] was not below 70%.
As for `CCc1cc(Oc2cc(C)c(/N=C/N(C)CC)cc2Cl)ccc1Cl` [Example 13], in data set [1], the chromatographic logP amounted to 2.78. For the same compound, the pest or weed control at 100 ppm with Podosphaera leucotricha and in the data set on Sphaerotheca fuliginea was not below 70% in each case. The pest or weed control at 1000 ppm in data set [2] and in data set [3] was not below 70% throughout. Further, the pest or weed control at 500 ppm with Alternaria solani is not below 70%.
`CCCN(C)/C=N/c1cc(C)c(Oc2ccc(Cl)c(CC)c2)cc1C` [Example 14]: the chromatographic logP in data set [1] was 2.76. Besides, the pest or weed control at 100 ppm with Podosphaera leucotricha and in the data set with Sphaerotheca fuliginea was not below 70% in each case. Also, the pest or weed control at 1000 ppm in data set [2] and in data set [3] was not below 70% each time. The pest or weed control at 500 ppm in the data set on Alternaria solani is not below 70%.
For `CCCN(C)/C=N/c1cc(C)c(Oc2ccc(Br)c(C(C)C)c2)cc1C` [Example 17], the chromatographic logP in data set [1] is 2.91. In addition, the pest or weed control at 100 ppm in the data set with Podosphaera leucotricha and in the data set with Sphaerotheca fuliginea was not below 70% each time. Besides, the pest or weed control at 1000 ppm in data set [2] and in data set [3] was not below 70% throughout. In addition, in the data set with Alternaria solani, the pest or weed control at 500 ppm was not below 70%.
Take `CCN(C)/C=N/c1cc(C)c(Oc2ccc(Br)c(C(C)C)c2)cc1C` [Example 19]: in data set [1], the chromatographic logP turned out to be 3.04. For the same compound, the pest or weed control at 100 ppm in the data set on Podosphaera leucotricha and with Sphaerotheca fuliginea was not below 70% throughout. The pest or weed control at 1000 ppm in data set [2] and in data set [3] was not below 70% each time. Also, in the data set on Alternaria solani, the pest or weed control at 500 ppm is not below 70%.
For the compound `CCN(C)/C=N/c1cc(Cl)c(Oc2ccc(Cl)c(C(C)C)c2)cc1C` [Example 20], in data set [1], the chromatographic logP amounted to 2.95. Further, the pest or weed control at 100 ppm with Podosphaera leucotricha and with Sphaerotheca fuliginea was not below 70% throughout. In addition, the pest or weed control at 1000 ppm in data set [2] and in data set [3] was not below 70% each time. The pest or weed control at 500 ppm in the data set with Alternaria solani is not below 70%.
For `CCCN(C)/C=N/c1cc(Cl)c(Oc2ccc(Cl)c(C(C)C)c2)cc1C` [Example 21], the chromatographic logP in data set [1] came out at 3.03. The pest or weed control at 100 ppm in the data set with Podosphaera leucotricha and with Sphaerotheca fuliginea was not below 70% throughout. Moreover, the pest or weed control at 1000 ppm in data set [2] and in data set [3] was not below 70% each time. For the same compound, in the data set on Alternaria solani, the pest or weed control at 500 ppm was not below 70%.
For `Cc1cc(Oc2ccc(Cl)c(C(C)C)c2)c(Cl)cc1/N=C/N(C)C(C)C` [Example 22], the chromatographic logP in data set [1] was found to be 3.17. Moreover, the pest or weed control at 100 ppm with Podosphaera leucotricha and in the data set on Sphaerotheca fuliginea was not below 70% throughout. Moreover, the pest or weed control at 1000 ppm in data set [2] and in data set [3] was not below 70% throughout. For the same compound, the pest or weed control at 500 ppm in the data set on Alternaria solani is not below 70%.
